Assay results: the NIST ThermoML archive (doi:10.1016/j.jct.2017.01.011)

Assay: xn = mol fraction of the nth substance listed
Conditions: 100 kPa, Liquid; for speed of sound: Frequency=3 MHz, Single path-length method; for mass density: Vibrating tube method

OCC(O)CO [glycerol] + CO
Conditions | mass density, 283.15 K [kg/m3] | mass density, 293.15 K [kg/m3] | mass density, 303.15 K [kg/m3] | mass density, 313.15 K [kg/m3] | speed of sound, 283.15 K [m/s] | speed of sound, 293.15 K [m/s] | speed of sound, 303.15 K [m/s] | speed of sound, 313.15 K [m/s]
x2 = 0 | 1267 | 1261 | 1255 | 1248 | 1942.3 | 1922.9 | 1901 | 1879.3
x2 = 0.1003 | 1244 | 1238 | 1232 | 1225 | 1901.8 | 1873 | 1848.8 | 1826.1
x2 = 0.1997 | 1220 | 1213 | 1207 | 1200 | 1841.5 | 1816.1 | 1792.7 | 1770
x2 = 0.3002 | 1192 | 1186 | 1179 | 1172 | 1779.2 | 1755.3 | 1732.3 | 1709.5
x2 = 0.4011 | 1158 | 1152 | 1145 | 1138 | 1708.9 | 1684.6 | 1660.7 | 1637.1
x2 = 0.4999 | 1119 | 1112 | 1105 | 1098 | 1628.4 | 1604 | 1579.6 | 1555.3
x2 = 0.5998 | 1075 | 1068 | 1060 | 1053 | 1546.5 | 1521.1 | 1495.6 | 1470.4
x2 = 0.7 | 1024 | 1016 | 1009 | 1001 | 1457.7 | 1430.9 | 1404.2 | 1377.6
x2 = 0.8002 | 964 | 956 | 947 | 939 | 1364.5 | 1336.1 | 1307.8 | 1279.7
x2 = 0.8999 | 892 | 883 | 874 | 865 | 1265.5 | 1234.9 | 1204.5 | 1174.5

OCC(O)CO [glycerol] + CCO
Conditions | mass density, 283.15 K [kg/m3] | mass density, 293.15 K [kg/m3] | mass density, 303.15 K [kg/m3] | mass density, 313.15 K [kg/m3] | speed of sound, 283.15 K [m/s] | speed of sound, 293.15 K [m/s] | speed of sound, 303.15 K [m/s] | speed of sound, 313.15 K [m/s]
x2 = 0 | 1267 | 1261 | 1255 | 1248 | 1942.3 | 1922.9 | 1901 | 1879.3
x2 = 0.0999 | 1233 | 1227 | 1220 | 1214 | 1882.1 | 1852.5 | 1827.9 | 1804.6
x2 = 0.2002 | 1199 | 1193 | 1186 | 1179 | 1804.3 | 1778.9 | 1753.4 | 1729.7
x2 = 0.2998 | 1161 | 1155 | 1148 | 1140 | 1721.8 | 1696.1 | 1671.4 | 1647.2
x2 = 0.4001 | 1120 | 1113 | 1106 | 1099 | 1639.2 | 1613.3 | 1587.9 | 1562.8
x2 = 0.4993 | 1077 | 1069 | 1062 | 1055 | 1557.7 | 1530.9 | 1504.6 | 1478.5
x2 = 0.6004 | 1029 | 1021 | 1014 | 1006 | 1476.1 | 1448.4 | 1421.1 | 1394
x2 = 0.699 | 978 | 970 | 963 | 955 | 1401.7 | 1372.8 | 1344.2 | 1315.8
x2 = 0.9002 | 862 | 854 | 845 | 837 | 1263.5 | 1231.4 | 1199.4 | 1167.7

OCC(O)CO [glycerol] + O
Conditions | mass density, 283.15 K [kg/m3] | mass density, 293.15 K [kg/m3] | mass density, 303.15 K [kg/m3] | mass density, 313.15 K [kg/m3] | speed of sound, 283.15 K [m/s] | speed of sound, 293.15 K [m/s] | speed of sound, 303.15 K [m/s] | speed of sound, 313.15 K [m/s]
x2 = 0 | 1267 | 1261 | 1255 | 1248 | 1942.3 | 1922.9 | 1901 | 1879.3
x2 = 0.1003 | 1261 | 1255 | 1249 | 1243 | 1951.7 | 1922 | 1897.9 | 1875.7
x2 = 0.1998 | 1254 | 1248 | 1242 | 1236 | 1940.9 | 1915.6 | 1893.3 | 1871.9
x2 = 0.3014 | 1246 | 1240 | 1234 | 1228 | 1931.5 | 1909 | 1888 | 1867.3
x2 = 0.4042 | 1236 | 1230 | 1224 | 1218 | 1919.2 | 1899.3 | 1879.7 | 1859.8
x2 = 0.5011 | 1224 | 1218 | 1212 | 1205 | 1903.7 | 1886 | 1867.9 | 1849.3
x2 = 0.6011 | 1206 | 1201 | 1194 | 1188 | 1879.7 | 1864.7 | 1848.8 | 1832
x2 = 0.7003 | 1183 | 1177 | 1172 | 1166 | 1841.6 | 1830.6 | 1818.2 | 1804.5
x2 = 0.7999 | 1148 | 1143 | 1137 | 1131 | 1772.9 | 1769.3 | 1763.5 | 1755.4
x2 = 0.9024 | 1091 | 1087 | 1083 | 1078 | 1648.7 | 1659.3 | 1665.8 | 1668.4
